Measured values: patent US6432938B1, “19-nor-cholane steroids as neurochemical initators of change in human hypothalamic function” (Pherin Corporation, priority 1996, dated 2002)

Legend:
vomeronasal organ (VNO) [1] = experiment: Electrovomerogram (EVG) after airborne delivery of substance to the vomeronasal organ; type: in vivo, human; details: 2 second pulses to VNO, diluted in propylene glycol, number in cell = compound with effect
Excerpt: The stimulation and recording system consists of a “multifunctional miniprobe” described elsewhere (Monti-Bloch, L. and Grosser, B. l. (1991) “Effect of putative pheromones on the electrical activity of the human vomeronasal organ and olfactory epithelium,” J. Steroid Biochem. Molec. Bio. 39:573582). The recording electrode is a 0.3 mm silver ball attached to a small (0.1 mm) silver wire insulated with Teflon© the surface of the electrode is first treated to produce a silver chloride interface, and is then covered with gelatin It is positioned within a small caliber Teflon© catheter (dia=5 mm) such that the tip of the electrode protrudes approximately 2 mm. The Teflon© catheter is 10 cm in length and constitutes the terminal extension for a multichannel delivery system which delivers a continuous air stream carrying discreet pulses of chemosensory stimuli. The air stream first passes into a small chamber and is bubbled through a solution containing either a vomeropherin or an olfactant in a diluent or the diluent alone. A solenoid is used to rapidly redirect the air stream from the chamber to a route which bypasses the chamber. This creates a discreet pulse of stimulant in the air stream. A second, outer Teflon© tube with a diameter of 2 mm surrounds the catheter-electrode assemblage, and its central end is connected to an aspirator that provides continuous suction of 3 ml/s. This concentric arrangement of the outer suction tube allows the emitted chemosensory stimuli to be localized to an area we call a “minifield” (approx. dia=1 mm), and it avoids diffusion of substances either to the area outside the intended stimulation site or into the respiratory system. The entire stimulating and recording assemblage may be positioned either on the neurosensory epithelium within the VNo, or on the surface of the olfactory or respiratory epithelium.
Electro-vomeronasogram (EVG): Recordings are carried out in a quiet room with the subject supine; the multi-functional miniprobe is initially stabilized within the nasal cavity using a nasal retractor placed in the vestibule. Reference and ground electrodes consist of silver discs (8 mm), both of which are positioned on the glabella.
The entrance to the VNO, or vomeronasal pit, is identified by first dilating the nasal aperture and vestibule. A 6×magnifying binocular loupe with halogen illumination is then used to introduce the tip of the Teflon© catheter and recording electrode assemblage into the VNo opening where it is stabilized at an approximate depth of 1 mm within the vomeronasal passage. Optimal placement of the recording electrode is signaled after testing for an adequate depolarization in response to a test substance.
Electrical signals from the recording electrode are fed to a DC amplifier after which they are digitized, computer monitored, and stored. The peak-to-peak amplitude of the signals is measured, and the area under the depolarization wave is integrated, while continuously monitoring the signal both on the computer screen and on a digital oscilloscope. Artifacts produced by respiratory movements are deleted by training the subjects to practice mouth breathing with velopharyngeal closure. Samples of vomeropherins in concentration of 25-800 fmoles are delivered in the continuous air stream for durations from 300 milliseconds to 1 second. Usually, intervals of 3 to 5 minutes separated each series of short test pulses. All components of the lines carrying the test stimuli are made of Teflon©, glass or stainless steel and are carefully cleaned and sterilized before each use. Activity was recorded using standard electroencephalographic (EEG) electrodes placed at positions Cz-Al and Tz-Al of the international […] system; the ground electrode was placed on the mastoid process. Skin temperature (ST) was recorded by a small (1.0 mm) thermistor probe placed in the right ear lobe. Respiratory frequency (RF) was measured with an adjustable strain gauge placed around the lower thorax. […]

vomeronasal organ (VNO) [2] = experiment: Reflex/autonomic responses (RF, CF, BT, EMG, EEG) to stimulation of the VNO with airborne substance; type: in vivo, human; details: for BT (body temperature): compound found to have an effect / EEG-T (electroencephalogram from temporal region): compound found to have an effect / RF (respiratory frequency): compound found to have an effect / EEG-V (electroencephalogram from vertex): compound found to have an effect / EMG (electromyogram): compound found to have an effect / CF (cardiac frequency): compound found to have an effect: 2 second pulses to VNO, number in cell = compound with effect; for gender dimorphic effects: males versus females, all recorded parameters
Procedure: Electrical signals from the recording electrode are fed to a DC amplifier after which they are digitized, computer monitored, and stored. The peak-to-peak amplitude of the signals is measured, and the area under the depolarization wave is integrated, while continuously monitoring the signal both on the computer screen and on a digital oscilloscope. Artifacts produced by respiratory movements are deleted by training the subjects to practice mouth breathing with velopharyngeal closure. Samples of vomeropherins in concentration of 25-800 fmoles are delivered in the continuous air stream for durations from 300 milliseconds to 1 second. Usually, intervals of 3 to 5 minutes separated each series of short test pulses. All components of the lines carrying the test stimuli are made of Teflon©, glass or stainless steel and are carefully cleaned and sterilized before each use. Activity was recorded using standard electroencephalographic (EEG) electrodes placed at positions Cz-Al and Tz-Al of the international […] system; the ground electrode was placed on the mastoid process. Skin temperature (ST) was recorded by a small (1.0 mm) thermistor probe placed in the right ear lobe. Respiratory frequency (RF) was measured with an adjustable strain gauge placed around the lower thorax. All electrical signals were DC amplified, digitized (MP-100, Biopac systems) and continuously monitored utilizing a computer.
Studies were conducted to determine the central nervous system (CNS) reflex responses to vomeropherin stimulation of the VNO. The sexually dimorphic local responses induced by vomeropherins were sometimes mirrored in the autonomic response of male & female subjects.
Fourteen different substances were tested against a control. All substances were diluted in propylene glycol, in 2 ml glass bottles coded with numbers. The solvent (propylene glycol) was used as control.
The airborne substances were delivered to the vomeronasal organ (VNO) in 2 second pulses, using a miniprobe. Several parameters were recorded Electrovomerogram (EVG), respiratory frequency (RF), cardiac frequency (ECG), electrodermal activity (EDA), body temperature (BT), electromyogram (EMG), and electroencephalogram from vertex (EEG-V) and temporal region (EEG-T).
A summary of the results is shown in Table I. Each number indicates the compound found to have an effect in females or in males, on the parameter indicated in the upper row of the table. (For the equivalence of each number to the corresponding compound in males, and in females, see the compound numbers).

CCCC=C1CCC2C3CCc4cc(O)ccc4C3=CCC12C (stereo not drawn) [Compound 1, 19,21-BISNORCHOLA-1,3,5(10),9(11),17(20)-PENTAEN-3-OL]
EVG (electrovomerogram): compound found to have an effect (vomeronasal organ (VNO) [1]; males (M)): 1 | BT (body temperature): compound found to have an effect (vomeronasal organ (VNO) [2]; males (M)): 1

CCCCC1=CC[C@H]2[C@@H]3CCC4=C(CC[C@H](O)C4)[C@H]3CC[C@]12C [Compound 2, 19,21-BISNORCHOLA-5(10),16-DIEN-3beta-OL]
EVG (electrovomerogram): compound found to have an effect (vomeronasal organ (VNO) [1]; females (F)): 2 | EVG (electrovomerogram): compound found to have an effect (vomeronasal organ (VNO) [1]; males (M)): 2 | EEG-T (electroencephalogram from temporal region): compound found to have an effect (vomeronasal organ (VNO) [2]; females (F)): 2 | BT (body temperature): compound found to have an effect (vomeronasal organ (VNO) [2]; males (M)): 2 | RF (respiratory frequency): compound found to have an effect (vomeronasal organ (VNO) [2]; males (M)): 2 | gender dimorphic effects (vomeronasal organ (VNO) [2]): gender specific

CCCC=C1CC[C@H]2[C@@H]3C=Cc4cc(O)ccc4[C@H]3CC[C@]12C [Compound 3, 19,21-BISNORCHOLA-1,3,5(10),6,17(20)-PENTAEN-3-OL]
EVG (electrovomerogram): compound found to have an effect (vomeronasal organ (VNO) [1]; females (F)): 3 | EVG (electrovomerogram): compound found to have an effect (vomeronasal organ (VNO) [1]; males (M)): 3 | EEG-V (electroencephalogram from vertex): compound found to have an effect (vomeronasal organ (VNO) [2]; females (F)): 3 | BT (body temperature): compound found to have an effect (vomeronasal organ (VNO) [2]; males (M)): 3

CCCCC1=CC[C@H]2[C@@H]3CCC4=CC(=O)CC[C@]4(O)[C@H]3CC[C@]12C [Compound 4, 10beta-HYDROXY-19,21-BISNORCHOLA-4,16-DIEN-3-ONE]
RF (respiratory frequency): compound found to have an effect (vomeronasal organ (VNO) [2]; females (F)): 4 | BT (body temperature): compound found to have an effect (vomeronasal organ (VNO) [2]; males (M)): 4 | EMG (electromyogram): compound found to have an effect (vomeronasal organ (VNO) [2]; males (M)): 4

CCCC=C1CCC2C3CCC4=CC(O)CCC4C3CCC12C (stereo not drawn) [Compound 5, 19,21-BISNORCHOLA-4,17(20)-DIEN-3beta-OL]
EVG (electrovomerogram): compound found to have an effect (vomeronasal organ (VNO) [1]; females (F)): 5 | RF (respiratory frequency): compound found to have an effect (vomeronasal organ (VNO) [2]; females (F)): 5

CC(O)CO (stereo not drawn) [Compound 6, PROPYLENE GLYCOL]
EVG (electrovomerogram): compound found to have an effect (vomeronasal organ (VNO) [1]; females (F)): 6 | EEG-T (electroencephalogram from temporal region): compound found to have an effect (vomeronasal organ (VNO) [2]; females (F)): 6

CCCC=C1CC[C@H]2c3ccc4cc(O)ccc4c3CC[C@]12C [Compound 7, 19,21-BISNORCHOLA-1,3,5,7,9,17(20)-HEXAEN-3-OL]
EVG (electrovomerogram): compound found to have an effect (vomeronasal organ (VNO) [1]; females (F)): 7 | EVG (electrovomerogram): compound found to have an effect (vomeronasal organ (VNO) [1]; males (M)): 7 | BT (body temperature): compound found to have an effect (vomeronasal organ (VNO) [2]; males (M)): 7 | EEG-T (electroencephalogram from temporal region): compound found to have an effect (vomeronasal organ (VNO) [2]; males (M)): 7

C=C(CCC)[C@H]1CC[C@H]2[C@@H]3CCc4cc(O)ccc4[C@H]3CC[C@]12C [Compound 8, 19-NORCHOLA-1,3,5(10),20-TETRAEN-3-OL]
CF (cardiac frequency): compound found to have an effect (vomeronasal organ (VNO) [2]; females (F)): 8 | EMG (electromyogram): compound found to have an effect (vomeronasal organ (VNO) [2]; females (F)): 8 | EEG-V (electroencephalogram from vertex): compound found to have an effect (vomeronasal organ (VNO) [2]; males (M)): 8

CCCC=C1CCC2C3=CCc4cc(O)ccc4C3CCC12C (stereo not drawn) [Compound 9, 19,21-BISNORCHOLA-1,3,5(10),7,17(20)-PENTAEN-3-OL]
CF (cardiac frequency): compound found to have an effect (vomeronasal organ (VNO) [2]; females (F)): 9

CCCCC1=CC[C@H]2[C@@H]3CCC4=C(CC[C@@H](O)C4)[C@H]3CC[C@]12C [Compound 10, 19,21-BISNORCHOLA-5(10),16-DIEN-3alpha-OL]
CF (cardiac frequency): compound found to have an effect (vomeronasal organ (VNO) [2]; females (F)): 10 | EEG-T (electroencephalogram from temporal region): compound found to have an effect (vomeronasal organ (VNO) [2]; females (F)): 10 | EEG-T (electroencephalogram from temporal region): compound found to have an effect (vomeronasal organ (VNO) [2]; males (M)): 10 | EEG-V (electroencephalogram from vertex): compound found to have an effect (vomeronasal organ (VNO) [2]; males (M)): 10 | gender dimorphic effects (vomeronasal organ (VNO) [2]): gender specific

CCCCC1=CC[C@H]2[C@@H]3CCc4cc(OC)ccc4[C@H]3CC[C@]12C [Compound 11, 3-METHOXY-19,21-BISNORCHOLA-1,3,5(10),16-TETRAENE]
CF (cardiac frequency): compound found to have an effect (vomeronasal organ (VNO) [2]; females (F)): 11 | EEG-T (electroencephalogram from temporal region): compound found to have an effect (vomeronasal organ (VNO) [2]; females (F)): 11 | EEG-V (electroencephalogram from vertex): compound found to have an effect (vomeronasal organ (VNO) [2]; females (F)): 11 | CF (cardiac frequency): compound found to have an effect (vomeronasal organ (VNO) [2]; males (M)): 11 | EEG-T (electroencephalogram from temporal region): compound found to have an effect (vomeronasal organ (VNO) [2]; males (M)): 11 | EEG-V (electroencephalogram from vertex): compound found to have an effect (vomeronasal organ (VNO) [2]; males (M)): 11

CCCCC1=CCC2C3CCC4=C(CCC(=O)C4)C3CCC12C (stereo not drawn) [Compound 12, 19,21-bisnorchola-5(10),16-dien-3-one]
CF (cardiac frequency): compound found to have an effect (vomeronasal organ (VNO) [2]; males (M)): 12
